The values below come from patent publication US11293931B2, “Quantitative profiling of progesterone metabolites for the prediction of spontaneous preterm delivery” (Indiana University Research and Technology Corporation, priority 2016, dated 2022).

In one assay the test system is CALM3. Briefly: Gene array of calmodulin expression with progestogen treatment: CALM3. The assay is classed as cell-based, human. To be noted: primary myometrial cells treated with a 1:10 M/G ratio, compared to DMSO treated controls (FIG. 11). As for the experimental part: (§1) The effect of progesterone or HPC treatment on calmodulin gene expression (CALM1, CALM2, CALM3) was further explored. Primary myometrial cells were treated with a 1:10 M/G ratio and a gene array used to assess calmodulin expression. […] The fold change in total CALM expression (trend line for all three isoforms) was approximately half with HPC treatment (4.4-fold) compared to progesterone (8.9-fold) or control treatments (8.3-fold).

A further assay relates to CALM1. Briefly: Gene array of calmodulin expression with progestogen treatment: CALM1. The class given is cell-based, human. To be noted: primary myometrial cells treated with a 1:10 M/G ratio, compared to DMSO treated controls (FIG. 11). The protocol:
as §1

For assay [1] the following is noted: women with a prior history of spontaneous preterm birth; cited from earlier work.
The test system of another assay is CALM2. Briefly: Gene array of calmodulin expression with progestogen treatment: CALM2. The assay is classed as cell-based, human. To be noted: primary myometrial cells treated with a 1:10 M/G ratio; for fold increase in CALM2 expression: compared to DMSO treated controls (FIG. 11). As for the experimental part:
as §1

A further assay relates to total CALM expression. Briefly: Gene array of calmodulin expression with progestogen treatment: total CALM (all three isoforms). The class given is cell-based, human. To be noted: primary myometrial cells treated with a 1:10 M/G ratio. As for the experimental part:
as §1

Turning to `CCCCCC(=O)O[C@]1(C(C)=O)CC[C@H]2[C@@H]3CCC4=CC(=O)CC[C@]4(C)[C@H]3CC[C@@]21C` [HPC, 17α-hydroxyprogesterone caproate], the “change in CALM3 expression” value with CALM3 was “modest decreases”. In the assay with CALM1, the “change in CALM1 expression” value is “modest decreases”. For the same compound, in assay [1], the “reduction in the risk of recurrent sPTB” value is listed as 30-40%. In the assay with CALM2, the “reduction in CALM2 expression compared to progesterone treated cells” value is about 30% and the “fold increase in CALM2 expression” value came out at 9 fold. The “fold change in total CALM expression (trend line for all three isoforms)” value in the assay with total CALM expression amounted to 4.4 fold.
Consider `CC(=O)[C@H]1CC[C@H]2[C@@H]3CCC4=CC(=O)CC[C@]4(C)[C@H]3CC[C@]12C` [progesterone], for which, in the assay on CALM3, the “change in CALM3 expression” value is listed as “modest decreases”. In addition, in the assay with CALM1, the “change in CALM1 expression” value was “modest decreases”. The “fold increase in CALM2 expression” value in the assay on CALM2 came to 13 fold. The “fold change in total CALM expression (trend line for all three isoforms)” value in the assay on total CALM expression is given as 8.9 fold.
